In patent US7718693B2, “Receptor antagonists and their methods of use” (Glaxo Group Limited, priority 2006, dated 2010):

How the values were obtained:
Assay type in all cases: in vivo
Random Hooded rats [1] = test: Rat Model of Neuropathic Pain (sciatic nerve ligatures, Von Frey mechanical allodynia); conditions: oral, twice daily for 8 days, 26-33 days post surgery
Description: Rat Model of Neuropathic Pain
By placing loosely constrictive ligatures around the common sciatic nerve, a peripheral mononeuropathy can be produced, which thereby provides a rat model of neuropathic pain, Bennet et al., Pain, Vol. 33, pp 87-107 (1988). Adult male Random Hooded rats (180-200 g) from Charles River, UK were anaesthetised with isoflurane (3%). The sciatic nerve in the left leg was exposed at mid thigh level and 4 loose ligatures of Chromic 4.0 gut tied around the nerve as described by Bennet et al., Pain, Vol. 33, pp 87-107 (1988). The wound was closed and secured with staples. Sham rats underwent the same procedure but loose ligatures were not applied. The presence of mechanical (tactile) allodynia was assessed using manual application of Von Frey hair monofilaments. Monofilaments were applied in ascending order to the plantar region of the hind paw (range: 1.4 g-26 g). Each hair was applied for approx. 3-5 seconds until a paw withdrawal response was observed. After confirmation with reapplication of lower and/or higher hairs, the lowest hair to give a paw withdrawal was recorded as the threshold response (g). When stable allodynia was established rats were dosed orally 26-33 days post surgery with compound twice daily for 8 days with allodynia measurements recorded at least three times during the dosing period.

Random Hooded rats [2] = test: Rat Model of Joint Pain (intra-articular FCA, weight bearing); conditions: oral; for ED50: FCA (i.art) weight bearing, read-out: ED50 obtained from Area Under the Curve (AUC) calculations; for reversal of FCA (i.art)-induced difference in weight bearing compared to vehicle response: twice daily for 5 days, normally 13-17 days post surgery
Experimental: By measuring hypersensitivity post intra-articular injection of FCA into the knee, the effectiveness of a potential analgesic in reversing FCA-induced hypersensitivity can be assessed in a joint pain model of chronic inflammatory pain. Adult male Random Hooded rats (150-180 g) from Charles River, UK were briefly anaesthetised with isoflurane (3%). Rats were then injected with 150 μl of Freund's complete adjuvant (FCA) into the left knee joint (intra-articularly, i.art). The ability to bear weight on each hindlimb (weight bearing, g) was measured prior to and following surgery using a Dual Channel Weight Averager (Linton Instruments). When a stable difference in weight bearing was established between the injected and contralateral paws, rats were typically dosed orally (normally 13-17 days post surgery) with compound twice daily for 5 days with weight bearing measurements recorded daily.

Random Hooded rats [3] = test: Rat Model of Acute Inflammatory Pain (intraplantar FCA, weight bearing); conditions: oral; for reversal of FCA (i.pl)-induced difference in weight bearing compared to vehicle response: 24 hours after FCA injection; for ED50: FCA (i.pl) weight bearing, read-out: ED50 obtained from dose response curves
Experimental: Rat Model of Acute Inflammatory Pain
A useful animal model for acute inflammatory pain is the Freund's Complete Adjuvant (FCA)-induced inflammation model. A similar model using carrageenan rather than FCA is described by Clayton et al. in Br. J. Pharmacol. 1997; 120, 219P. Adult male Random Hooded rats (180-220 g) from Charles River, UK received an intraplantar (i.pl) injection of 100 μl of FCA into the plantar surface of the left hind paw. The ability to bear weight on each hindlimb (weight bearing g) was measured prior to and 24 hours after the FCA injection using a Dual Channel Weight Averager (Linton Instruments). After the post-FCA reading, rats were typically dosed orally with compound after which weight bearing measurements were recorded.

Structure (SMILES)	reversal of CCl-induced mechanical allodynia compared to vehicle response (Random Hooded rats [1])	ED50 (Random Hooded rats [2]) [mg/kg]	reversal of FCA (i.art)-induced difference in weight bearing compared to vehicle response (Random Hooded rats [2])	reversal of FCA (i.pl)-induced difference in weight bearing compared to vehicle response (Random Hooded rats [3])	ED50 (Random Hooded rats [3]) [mg/kg]
CN1C(=O)CC[C@H]1C(=O)NCc1ccc(Cl)cc1Cl [Example E10, N-[(2,4-dichlorophenyl)methyl]-1-methyl-5-oxo-prolinamide]	significantly reversed	< 20	significantly reversed	significantly reversed	< 20
CN1C(=O)CC[C@H]1C(=O)NCc1cccc(C(F)(F)F)c1Cl [Example E51, N-{[2-chloro-3-(trifluoromethyl)phenyl]methyl}-1-methyl-5-oxoprolinamide]	significantly reversed	< 20	significantly reversed	significantly reversed	< 20
